Test results taken from PubChem BioAssay AID248 (DTP/NCI, 2004).
“And” between values parts separate entries of the source, which are not always exact repeats. Equal values may be shown once. Toxic doses and inconclusive results are not listed. Cut-off read from the data, not from the text of the source: active = T/C of 150% or more; inactive = T/C below 125%.

Test system: L1210 leukemia ip in BDF1 mice, survival T/C
Assay: NCI In Vivo Anticancer Drug Screen. Data for tumor model L1210 Leukemia (intraperitoneal) in B6D2F1 (BDF1) mice
Details: endpoint: mean survival time, higher = longer survival
How it was run: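 Transplanted-tumor mice were given test agent; controls received vehicle only. Survival readings from the two groups were divided (treated over control).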

[1] = dose: 100.0 mg/kg/injection, schedule: Q01DX001 (ip), vehicle: saline with Tween-80
[2] = dose: 100.0 mg/kg/injection, schedule: Q01DX009 (ip), vehicle: saline with Tween-80
[3] = dose: 200.0 mg/kg/injection, schedule: Q01DX001 (ip), vehicle: saline with Tween-80
[4] = dose: 200.0 mg/kg/injection, schedule: Q01DX009 (ip), vehicle: saline with Tween-80
[5] = dose: 400.0 mg/kg/injection, schedule: Q01DX001 (ip), vehicle: saline with Tween-80
[6] = dose: 100.0 mg/kg/injection, schedule: Q01DX001 (ip), vehicle: saline
[7] = dose: 200.0 mg/kg/injection, schedule: Q01DX001 (ip), vehicle: saline
[8] = dose: 400.0 mg/kg/injection, schedule: Q01DX009 (ip), vehicle: saline with Tween-80
[9] = dose: 100.0 mg/kg/injection, schedule: Q04DX003 (ip), vehicle: saline with Tween-80
[10] = dose: 200.0 mg/kg/injection, schedule: Q04DX003 (ip), vehicle: saline with Tween-80
[11] = dose: 400.0 mg/kg/injection, schedule: Q04DX003 (ip), vehicle: saline with Tween-80
[12] = dose: 100.0 mg/kg/injection, schedule: Q04DX002 (ip), vehicle: Klucel (hydroxypropylcellulose) (HPC)
[13] = dose: 200.0 mg/kg/injection, schedule: Q04DX002 (ip), vehicle: Klucel (hydroxypropylcellulose) (HPC)
[14] = dose: 400.0 mg/kg/injection, schedule: Q04DX002 (ip), vehicle: Klucel (hydroxypropylcellulose) (HPC)

Measured: T/C

Cc1ccc2c(c1)Oc1ccccc1S2
inactive: dose: 100.0 mg/kg/injection, schedule: Q04DX002 (ip), vehicle: saline with Tween-80 96 % of control | dose: 200.0 mg/kg/injection, schedule: Q04DX002 (ip), vehicle: saline with Tween-80 103 % of control | dose: 400.0 mg/kg/injection, schedule: Q04DX002 (ip), vehicle: saline with Tween-80 103 % of control

NS(=O)(=O)c1cc[n+]([O-])c2ccccc12
inactive: [1] 97 % of control | [2] 96 % of control | [3] 97 % of control | [4] 94 % of control | [5] 96 % of control

NC(=O)c1ccccc1C(=O)c1ccccc1
inactive: [6] 102 % of control | [7] 104 % of control

CCN(CC)C(=O)Cn1ccc(N)nc1=O
inactive: dose: 100.0 mg/kg/injection, schedule: Q01DX009 (ip), vehicle: saline 115 % of control | dose: 100.0 mg/kg/injection, schedule: Q04DX003 (ip), vehicle: saline 100 % of control | dose: 200.0 mg/kg/injection, schedule: Q01DX009 (ip), vehicle: saline 98 % of control | dose: 200.0 mg/kg/injection, schedule: Q04DX003 (ip), vehicle: saline 100 % of control | dose: 400.0 mg/kg/injection, schedule: Q01DX009 (ip), vehicle: saline 97 % of control | dose: 400.0 mg/kg/injection, schedule: Q04DX003 (ip), vehicle: saline 102 % of control

CCCCC(=O)N/N=C/c1cc(I)cc(I)c1O
inactive: [6] 87 % of control | [7] 89 % of control | dose: 400.0 mg/kg/injection, schedule: Q01DX001 (ip), vehicle: saline 87 % of control

CC(=O)NCc1ccccc1
inactive: [2] 97 % of control | dose: 100.0 mg/kg/injection, schedule: Q04DX003 (ip), vehicle: Klucel (hydroxypropylcellulose) (HPC) 95 % of control | [4] 92 % of control | dose: 200.0 mg/kg/injection, schedule: Q04DX003 (ip), vehicle: Klucel (hydroxypropylcellulose) (HPC) 100 % of control | [8] 100 % of control | dose: 400.0 mg/kg/injection, schedule: Q04DX003 (ip), vehicle: Klucel (hydroxypropylcellulose) (HPC) 100 % of control

Nc1nnnc2nc[nH]c12
inactive: dose: 12.5 mg/kg/injection, schedule: Q01DX Z (ip), vehicle: carboxymethylcellulose (CMC) 100 % of control | dose: 25.0 mg/kg/injection, schedule: Q01DX Z (ip), vehicle: carboxymethylcellulose (CMC) 93 % of control

CSc1ccc(NC(=O)Nc2cc(C)c(C)cc2C)cc1
inactive: dose: 100.0 mg/kg/injection, schedule: Q01DX009 (ip), vehicle: other 86 % of control | dose: 200.0 mg/kg/injection, schedule: Q01DX009 (ip), vehicle: other 93 % of control and 90 % of control | dose: 400.0 mg/kg/injection, schedule: Q01DX009 (ip), vehicle: other 93 % of control and 106 % of control

COc1ccccc1NC1=C(NC(=O)Cc2ccccc2)C(=O)c2ccccc2C1=O
inactive: [9] 98 % of control | [10] 96 % of control | [11] 94 % of control

COc1ccc(/C=C2\N=C(c3ccc(Cl)cc3)OC2=O)cc1Br
inactive: dose: 100.0 mg/kg/injection, schedule: Q04DX002 (ip), vehicle: saline 101 % of control | dose: 200.0 mg/kg/injection, schedule: Q04DX002 (ip), vehicle: saline 93 % of control | dose: 400.0 mg/kg/injection, schedule: Q04DX002 (ip), vehicle: saline 108 % of control

Nc1ccc2c(c1)Cc1cc(NC(=O)C(F)(F)F)ccc1-2
inactive: [9] 100 % of control | [10] 96 % of control | [11] 92 % of control

CC(C)Cc1cc(C#N)cc(C(C)(C)C)c1O
inactive: [12] 100 % of control | [13] 100 % of control | [14] 103 % of control

C=CCc1ccc(OC(=O)Nc2ccccc2)c(OC)c1
inactive: [12] 87 % of control | [13] 87 % of control | [14] 87 % of control

O=C/C(=C\C=C\c1ccc([N+](=O)[O-])cc1)c1ccccc1
inactive: dose: 75.0 mg/kg/injection, schedule: Q01DX001 (ip), vehicle: Klucel (hydroxypropylcellulose) (HPC) 86 % of control | dose: 150.0 mg/kg/injection, schedule: Q01DX001 (ip), vehicle: Klucel (hydroxypropylcellulose) (HPC) 88 % of control | dose: 300.0 mg/kg/injection, schedule: Q01DX001 (ip), vehicle: Klucel (hydroxypropylcellulose) (HPC) 89 % of control

CCc1nc2c(OC)ccc(OC)c2nc1C
inactive: dose: 75.0 mg/kg/injection, schedule: Q01DX001 (ip), vehicle: other 96 % of control | dose: 150.0 mg/kg/injection, schedule: Q01DX001 (ip), vehicle: other 96 % of control

Cc1cccc(C[As](=O)(O)O)c1
inactive: dose: 12.5 mg/kg/injection, schedule: Q04DX003 (ip), vehicle: Klucel (hydroxypropylcellulose) (HPC) 97 % of control | dose: 25.0 mg/kg/injection, schedule: Q04DX003 (ip), vehicle: Klucel (hydroxypropylcellulose) (HPC) 111 % of control

COc1cc(/C=C2\NC(=O)NC2=O)ccc1O
inactive: [4] 86 % of control | [8] 90 % of control

N#Cc1cn[nH]c1N
inactive: [1] 98 % of control | [3] 95 % of control | [5] 103 % of control

ON1CCCC1
inactive: dose: 100.0 mg/kg/injection, schedule: Q01DX009 (ip), vehicle: water 95 % of control | dose: 100.0 mg/kg/injection, schedule: Q04DX003 (ip), vehicle: water 92 % of control | dose: 200.0 mg/kg/injection, schedule: Q01DX009 (ip), vehicle: water 101 % of control | dose: 200.0 mg/kg/injection, schedule: Q04DX003 (ip), vehicle: water 92 % of control | dose: 400.0 mg/kg/injection, schedule: Q04DX003 (ip), vehicle: water 92 % of control

Cc1nc(C)c(C(=O)N/N=C/c2ccc(N(CCCl)CCCl)cc2)s1
inactive: dose: 50.0 mg/kg/injection, schedule: Q01DX001 (ip), vehicle: carboxymethylcellulose (CMC) 94 % of control | dose: 100.0 mg/kg/injection, schedule: Q01DX001 (ip), vehicle: carboxymethylcellulose (CMC) 94 % of control | dose: 200.0 mg/kg/injection, schedule: Q01DX001 (ip), vehicle: carboxymethylcellulose (CMC) 97 % of control | dose: 400.0 mg/kg/injection, schedule: Q01DX001 (ip), vehicle: carboxymethylcellulose (CMC) 94 % of control

CC(C)(C)c1ccc(S(=O)(=O)Cl)cc1
inactive: [12] 97 % of control | [13] 104 % of control | [14] 90 % of control

O=C(Nc1cc(C(F)(F)F)ccc1Cl)c1cccc(C(=O)Nc2cc(C(F)(F)F)ccc2Cl)c1
inactive: dose: 12.5 mg/kg/injection, schedule: Q04DX003 (ip), vehicle: saline with Tween-80 93 % of control | dose: 25.0 mg/kg/injection, schedule: Q04DX003 (ip), vehicle: saline with Tween-80 96 % of control | dose: 50.0 mg/kg/injection, schedule: Q04DX003 (ip), vehicle: saline with Tween-80 95 % of control | [10] 87 % of control

O=S1(=O)c2ccccc2Oc2ccccc21
inactive: dose: 50.0 mg/kg/injection, schedule: Q01DX001 (ip), vehicle: other 93 % of control | dose: 100.0 mg/kg/injection, schedule: Q01DX001 (ip), vehicle: other 93 % of control | dose: 200.0 mg/kg/injection, schedule: Q01DX001 (ip), vehicle: other 100 % of control | dose: 400.0 mg/kg/injection, schedule: Q01DX001 (ip), vehicle: other 96 % of control

COC(=O)c1ccccc1C1=C(O)C(=O)C(c2ccccc2C(=O)OC)=C(O)C1=O
inactive: dose: 100.0 mg/kg/injection, schedule: Q01DX009 (ip), vehicle: Klucel (hydroxypropylcellulose) (HPC) 97 % of control | dose: 200.0 mg/kg/injection, schedule: Q01DX009 (ip), vehicle: Klucel (hydroxypropylcellulose) (HPC) 98 % of control

CC1SCC(NC(=O)NCCCl)CS1 (stereo not given)
inactive: dose: 100.0 mg/kg/injection, schedule: Q04DX002 (ip), vehicle: gum acacia 103 % of control | dose: 200.0 mg/kg/injection, schedule: Q04DX002 (ip), vehicle: gum acacia 100 % of control | dose: 400.0 mg/kg/injection, schedule: Q04DX002 (ip), vehicle: gum acacia 100 % of control
